# From US20180289692A1, “TLR MODULATORS AND METHODS OF USE” (CELGENE CORPORATION, priority 2015, published 2018)
# Oligonucleotides are written 5' to 3', each unit as a sugar letter and its base; * is a phosphorothioate linkage, no mark a phosphodiester; rarer units and linkages stand in square brackets, end groups in braces. Plain capitals give the bases only. d = 2'-deoxy (DNA)
# Columns and labels:
# Type in all cases: cell-based
# [1] = test system: mouse macrophages; experiment: TNFα and IL-10 production in mouse macrophages (Raw Blue cells), MagPix; details: 24 hrs
# Protocol: Mouse Raw Blue Reporter Cells (Invivogen) were plated in 96-well plates at 50,000 cells/well in DMEM Media supplemented with 10% FBS, 2 mM L-glutamine, 1% Pen/Strep, […] Normacin. […] The supernatant was harvested and tested for TNFα and IL-10 production using MagPix Multi-Plex technology.
# [2] = test system: human PBMCs; experiment: IL-1β secretion from human PBMCs by ELISA (inflammasome activation); details: 24 hours, FIG. 15
# [3] = molecular target: T1, TLR8 (Homo sapiens, UniProt Q9NR97); experiment: TLR8 activation in HEK Blue TLR8 reporter cell line after lipo-transfection; details: HEK Blue TLR8 reporter cells, Lipofectamine transfection, FIG. 24
# T1 construct: host or cells: HEK Blue TLR8 reporter cells (engineered HEK293, NF-κB inducible SEAP)
# T1 sequence (Q9NR97 27-1041): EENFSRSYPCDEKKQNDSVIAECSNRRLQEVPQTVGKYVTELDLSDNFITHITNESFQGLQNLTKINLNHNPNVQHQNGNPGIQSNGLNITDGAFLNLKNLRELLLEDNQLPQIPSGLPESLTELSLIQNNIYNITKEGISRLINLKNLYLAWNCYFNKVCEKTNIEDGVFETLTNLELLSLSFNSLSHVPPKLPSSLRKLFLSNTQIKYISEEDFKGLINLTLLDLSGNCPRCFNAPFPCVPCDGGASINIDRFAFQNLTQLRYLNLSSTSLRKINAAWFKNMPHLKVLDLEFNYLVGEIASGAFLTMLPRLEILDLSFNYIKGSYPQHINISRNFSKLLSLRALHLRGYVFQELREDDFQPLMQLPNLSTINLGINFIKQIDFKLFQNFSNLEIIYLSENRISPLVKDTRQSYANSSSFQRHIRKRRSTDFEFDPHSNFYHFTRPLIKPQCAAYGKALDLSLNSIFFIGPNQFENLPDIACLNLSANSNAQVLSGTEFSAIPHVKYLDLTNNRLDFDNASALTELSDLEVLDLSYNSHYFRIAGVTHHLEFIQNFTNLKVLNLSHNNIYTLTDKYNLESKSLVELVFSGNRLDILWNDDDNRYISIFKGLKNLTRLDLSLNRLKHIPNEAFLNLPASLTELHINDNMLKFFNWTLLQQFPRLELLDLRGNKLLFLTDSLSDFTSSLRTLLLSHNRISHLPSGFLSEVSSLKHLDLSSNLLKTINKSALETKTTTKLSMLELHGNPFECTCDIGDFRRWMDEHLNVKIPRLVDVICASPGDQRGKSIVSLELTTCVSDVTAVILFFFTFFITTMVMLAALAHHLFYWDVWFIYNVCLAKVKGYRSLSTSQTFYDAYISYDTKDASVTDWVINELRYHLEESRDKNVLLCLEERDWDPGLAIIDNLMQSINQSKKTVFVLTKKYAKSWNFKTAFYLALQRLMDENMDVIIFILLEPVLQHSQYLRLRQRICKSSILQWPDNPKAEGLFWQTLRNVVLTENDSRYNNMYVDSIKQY
# Protocol: Briefly, the reporter cells were engineered HEK293 cells that express a TLR8 gene and are specially designed for monitoring activity of NF-kβ inducible SEAP (secreted embryonic alkaline phosphatase). Reporter cells were seeded at a density of around 60000/well in 96 wells plates for 72 hrs. Growth medium was removed and Lipofectamine™ (Life Technologies, Foster City, Calif.) 2000/oligonucleotide complex and agonist was added and incubated for 6 hrs. The complex was removed and Detection Medium was added for 16 hrs of incubation. Optical density of SEAP was measured by spectrophotometer at […]. […] See also, Table 7.
# [4] = test system: human pDCs; experiment: Surface ICOS-L and PD-L1 expression in CCR6+CD123+ human pDCs by FACS; details: human pDCs, 24 hrs, FIG. 2B
# Protocol: To evaluate surface ICOS-L, PD-L1 expression in the CCR6+CD123+ pDC cell subsets, PBMCs were incubated on ice in the presence of Fc-Block (BD Pharmingen) for 20 minutes, washed, and incubated with antibodies specific for surface molecules or isotype-matched control mAbs. APC-labeled anti-human ICOS-L mAb were purchased from BioLegend, PECY-7-labeled anti-human CCR6 mAb, FITC-labeled anti-human PD-L1 mAb and PerCP-Cy5.5 labeled anti-human CD123 mAb were purchased from BD Biosciences. The stained cells were then subjected to FACS (FACSCanto, BD Biosciences) using FACSDiva software. FACS analysis was performed using FlowJo software. Single, viable cells in the CCR6+CD123+ pDC gates were analyzed. The flow cytometric results are expressed as the percentage and MFI of ICOSL-, or PD-L1-expressing cells in each gate.
# pDCs were isolated and ICOS-L expression was analyzed as described in Example 2.
# [5] = test system: purified human pDCs; experiment: pDC differentiation, differentiation markers CD86, CD83, CCR6, CCR7 by flow cytometry; set-up: key: (↑) indicates a weak but detectable activity; (↑↑) and (↑↑↑) indicate different levels of moderate activities; (↑↑) and (↑↑↑) indicate different levels of moderate activities; (↑↑↑↑) indicates a strong activity; (−) indicates no detectable activity; details: relative strength, Table 6
# [6] = test system: human purified pDCs; experiment: IFN-α secretion from purified human pDCs by ELISA
# Excerpt: By contrast, ODN2006 induced IFN-α secretion from purified and matured pDCs, and ODN150 and ODN7040 induced IFN-α secretion from matured pDCs.
substance,measurement,setting,value
"ODN150: 5′-G*G*A*ACAGTTCGTCCAT*G*G*C-3′, PO except * = PS; antisense to p65 of NF-kB mRNA; tested clinically for ulcerative colitis (DNA dG*dG*dA*dAdCdAdGdTdTdCdGdTdCdCdAdT*dG*dG*dC)",TNFα protein expression,"[1]; FIG. 12, COMPOUND (I) up to 10 μM",induce
same,IL-10 protein expression,"[1]; FIG. 13, COMPOUND (I) up to 10 μM",induce
same,IL-1β induction,[2],did not induce
same,TLR8 activation,[3],substantially induced
same,PD-L1 protein induction,[4],can induce
same,pDC differentiation,[5],↑
same,IFN-α secretion from pDCs matured by IL-3 treatment,"[6]; 3 μM, 48 hours, ELISA, FIG. 18",induced
same,IFN-α,"[6]; pDC, relative strength, Table 6",↑ ↑
